Reference: patent US20240207262A1, “PROPHYLACTIC AND/OR THERAPEUTIC AGENT FOR AMYOTROPHIC LATERAL SCLEROSIS” (NATIONAL UNIVERSITY CORPORATION TOKAI NATIONAL HIGHER …, priority 2021, published 2024)

Columns and labels:
[1] = Body weight of SOD1^G93A transgenic mice; assay type: in vivo, mouse; conditions: 1 mg/kg/day in diet, vs control diet; 2-way ANOVA; trend toward limiting weight loss
Description: (§1) PF-04457845 was mixed in the diet, and administration started at 8 weeks of age. […] Drug efficacy analysis was conducted using body weight, motion analysis based on the Rotarod test (measured once a week), and survival analysis.
(§2) • Week 0: • Week 6: 1. Body weight, 2. Rotarod test (the method for measuring the motor function of mice) • Week 8: The drug (PF-04457845) was mixed with the diet, and administration started. • Week 9-10: Onset • Around week 17-20: Survival analysis
(§3) PF-04457845 was administered at a dose of 1 mg/kg/day. The dosage was determined based on a previous report on administration to rats (Ahn K et al. Journal of Pharmacology and Experimental Therapeutics 2011: 338; 114-124).

[2] = test system: mouse spinal cord motor neurons; test: Spinal cord ChAT staining (motor neurons) in SOD1^G93A transgenic mice; assay type: in vivo
Description: as §1
In accordance with the method shown in FIG. 6, the drug was administered, and the pathological specimens of mouse spinal cords in an advanced stage of the disease were subjected to ChAT staining (motor neuron).
19W and 22W PF-04457845-administered mouse spinal cords were compared with a 19W control-administered mouse spinal cord.
The photographs are of a 22W PF-04457845-administered mouse spinal cord and a 19W control-administered mouse spinal cord.
(§4) A 16W PF-04457845-administered mouse spinal cord was compared with a 16W control-administered mouse spinal cord.
The photographs are of the 16W PF-04457845-administered mouse spinal cord and 16W control-administered mouse spinal cord.

microglia = test: Spinal cord Iba-1 staining in SOD1^G93A transgenic mice; assay type: in vivo; conditions: 16W treated vs 16W control mouse spinal cord
Description: as §1, §4

NSC34 cells = test: WST cell viability assay, NSC34 ALS model cells (model not given); assay type: cell-based, mouse
Description: (§5) A pathological cell model was created by transient forced expression of the following genes in NSC34 cells (mouse motor neuron) by transfecting the cells with a plasmid using Lipofectamine 2000 (R) (Thermo Fisher Scientific), and changes in cell viability due to drug administration were analyzed by WST assay.
(§6) • Day 0: NSC 34 cell culture (DMEM FBS 10%) • Day 1: Transfection (Cells were transfected with a plasmid having the following genes inserted by using Lipofectamine 2000 (R) (Thermo Fisher Scientific).) • 1. Mock (unmutated cells: control plasmid-transfected cells) • 2. TDP-43^A315T: TDP-43 mutation model (reflecting human pathological conditions) • 3. SOD1^G93A: mutation SOD1 familial model (mutation common to humans and animal models) • Cell culture is continued afterward in FBS-free DMEM. • Day 4: Drug administration • Day 5: WST assay (Cell viability is measured to determine the effect of drug administration.)
The experimental conditions are those described in FIG. 3.

[3] = test system: SOD1^G93A transgenic mice; test: Survival analysis in SOD1^G93A transgenic mice; assay type: in vivo, mouse; conditions: 1 mg/kg/day mixed in diet from 8 weeks of age, vs control diet; log rank test p<0.001
Description: as §1
An ALS model animal with mutation of SOD1 gene, which is responsible for familial ALS, was used to conduct efficacy analysis of PF-04457845. The control was one that was free of the drug.
as §2, §3
In accordance with the method shown in FIG. 6, survival analysis was performed. • ♂ (male), PF-04457845: n=8, Control: […] • ♀ (female), PF-04457845: n=8, Control: n=13 • Log rank test p<0.001

[4] = test system: NSC34 cells (mouse motor neuron) expressing TDP-43^A315T; test: WST cell viability assay, NSC34 cells transfected with TDP-43^A315T; assay type: cell-based; conditions: for Viability (TDP-43^A315T): ratio of maximum viability to viability at 0 μM
Description: as §5, §6
(§7) Two types of cellular models were used to bridge the gap between SOD1 transgenic mouse models and sporadic ALS human pathological conditions (TDP-43 cell model).
(§8) The viability indicates the ratio of maximum viability to viability at 0 μM. The […] PF-04457845 yielded a viability about 1.3 times the viability with the existing drug riluzole (control) at a concentration one-tenth the concentration of riluzole.

[5] = test system: NSC34 cells (mouse motor neuron) expressing SOD1^G93A; test: WST cell viability assay, NSC34 cells transfected with SOD1^G93A; assay type: cell-based; conditions: for Viability (SOD1^G93A): ratio of maximum viability to viability at 0 μM
Description: as §5, §6, §7, §8

mouse spinal cords = test: Mouse spinal cord RNA sequencing (GO and IPA analysis) in SOD1^G93A transgenic mice; assay type: in vivo; conditions: 16 weeks of age, drug diet vs control diet
Description: The experiment of PF-04457845 administration to SOD1^G93A transgenic mice was continued, and RNA sequencing of the spinal cord was performed on mice treated with a drug-infused diet and mice treated with a control diet, both at 16 weeks of age.
GO analysis: This is a method for analyzing a group of genes that have many variable genes when genes are grouped according to their functionality among mRNAs whose RNA sequences show changes.
IPA analysis: An analysis to explore the association of known pathways, upstream factors, and toxicity with disease.

[6] = test system: SOD1^G93A transgenic mice; test: Rotarod test (motion analysis) in SOD1^G93A transgenic mice; assay type: in vivo, mouse; conditions: 1 mg/kg/day in diet, vs control diet; 2-way ANOVA, p=0.002
Description: as §1, §2, §3

astrocytes = test: Spinal cord GFAP staining in SOD1^G93A transgenic mice; assay type: in vivo; conditions: 16W treated vs 16W control mouse spinal cord
Description: as §1, §4

Question: What does the source list for O=C(Nc1cccnn1)N1CCC(=Cc2cccc(Oc3ccc(C(F)(F)F)cn3)c2)CC1 [PF-04457845, N-pyridazin-3-yl-4-(3-{[5-(trifluoromethyl)pyridin-2-yl]oxy}benzylidene) piperidine-1-carboxamide]?
Answer: Body weight [1]: no significant difference in body weight; ChAT-positive motor neuron count in spinal cord ([2]; 16W treated mice vs 16W control mice): effect of limiting the decrease in motor neuron count; ChAT-positive motor neuron count in spinal cord ([2]; 19W and 22W treated mice vs 19W control mice, advanced stage): effect of limiting the decrease in motor neuron count; Iba-1 staining: proliferation of microglia (microglia): effect of inhibiting the proliferation of microglia; Viability relative to the viability with riluzole (control) (NSC34 cells; at a concentration one-tenth the concentration of riluzole): about 1.3 times; Improving effect on cell viability compared with other FAAH inhibitors (NSC34 cells; vs PF-3845, arachidonoyl serotonin, FAAH inhibitor II, conditions of FIG. 3): more effective in improving cell viability; Survival period [3]: effect of prolonging the survival period was observed; Improving cell viability, TDP-43 mutation (A315T) cell model ([4]; 10 nM): highly effective in improving the cell viability; Viability (TDP-43^A315T) ([4]; concentration 10 nM): 1.31; Improving cell viability, SOD1 (G93A) mutation cell model ([5]; 10 nM): highly effective in improving the cell viability; Viability (SOD1^G93A) ([5]; concentration 10 nM): 1.26; Expression of CD36 in mouse spinal cords (mouse spinal cords): increased; Expression of Pla2g3 in mouse spinal cords (mouse spinal cords): decreased; Expression of lipoprotein lipase (Lpl) in mouse spinal cords (mouse spinal cords): increased; IL-13 signaling pathway (IPA analysis) (mouse spinal cords): activation of IL-13 signaling pathway; Rotarod test (motor function) [6]: significant progression-inhibiting effect; GFAP staining: proliferation of astrocytes (astrocytes): effect of inhibiting the proliferation of astrocytes

Question: What does the source list for Nc1nc2ccc(OC(F)(F)F)cc2s1 [Riluzole, riluzole]?
Answer: Viability (TDP-43^A315T) ([4]; concentration 0.1 μM): 1.03; Viability (SOD1^G93A) ([5]; concentration 0.1 μM): 1.00
